# Assay results from US20210128537A1, “T-TYPE CALCIUM CHANNEL MODULATORS AND METHODS OF USE THEREOF” (Praxis Precision Medicines, inc., priority 2016, published 2021).
# Like-named read-outs stand apart in the source and are kept apart here.
# How the values were obtained:
# [1] = target: hCaV3.2 (Homo sapiens, UniProt O95180); assay: Inactivated channel state FLIPR assay, concentration-dependent inhibition of hCaV3.2; type: cell-based; conditions: for IC50: hCaV3.2, inactivated channel state FLIPR, n=4 wells per concentration; for slope of the concentration-inhibition curve: logistic function fit
# Sequence of hCaV3.2 (O95180 whole entry): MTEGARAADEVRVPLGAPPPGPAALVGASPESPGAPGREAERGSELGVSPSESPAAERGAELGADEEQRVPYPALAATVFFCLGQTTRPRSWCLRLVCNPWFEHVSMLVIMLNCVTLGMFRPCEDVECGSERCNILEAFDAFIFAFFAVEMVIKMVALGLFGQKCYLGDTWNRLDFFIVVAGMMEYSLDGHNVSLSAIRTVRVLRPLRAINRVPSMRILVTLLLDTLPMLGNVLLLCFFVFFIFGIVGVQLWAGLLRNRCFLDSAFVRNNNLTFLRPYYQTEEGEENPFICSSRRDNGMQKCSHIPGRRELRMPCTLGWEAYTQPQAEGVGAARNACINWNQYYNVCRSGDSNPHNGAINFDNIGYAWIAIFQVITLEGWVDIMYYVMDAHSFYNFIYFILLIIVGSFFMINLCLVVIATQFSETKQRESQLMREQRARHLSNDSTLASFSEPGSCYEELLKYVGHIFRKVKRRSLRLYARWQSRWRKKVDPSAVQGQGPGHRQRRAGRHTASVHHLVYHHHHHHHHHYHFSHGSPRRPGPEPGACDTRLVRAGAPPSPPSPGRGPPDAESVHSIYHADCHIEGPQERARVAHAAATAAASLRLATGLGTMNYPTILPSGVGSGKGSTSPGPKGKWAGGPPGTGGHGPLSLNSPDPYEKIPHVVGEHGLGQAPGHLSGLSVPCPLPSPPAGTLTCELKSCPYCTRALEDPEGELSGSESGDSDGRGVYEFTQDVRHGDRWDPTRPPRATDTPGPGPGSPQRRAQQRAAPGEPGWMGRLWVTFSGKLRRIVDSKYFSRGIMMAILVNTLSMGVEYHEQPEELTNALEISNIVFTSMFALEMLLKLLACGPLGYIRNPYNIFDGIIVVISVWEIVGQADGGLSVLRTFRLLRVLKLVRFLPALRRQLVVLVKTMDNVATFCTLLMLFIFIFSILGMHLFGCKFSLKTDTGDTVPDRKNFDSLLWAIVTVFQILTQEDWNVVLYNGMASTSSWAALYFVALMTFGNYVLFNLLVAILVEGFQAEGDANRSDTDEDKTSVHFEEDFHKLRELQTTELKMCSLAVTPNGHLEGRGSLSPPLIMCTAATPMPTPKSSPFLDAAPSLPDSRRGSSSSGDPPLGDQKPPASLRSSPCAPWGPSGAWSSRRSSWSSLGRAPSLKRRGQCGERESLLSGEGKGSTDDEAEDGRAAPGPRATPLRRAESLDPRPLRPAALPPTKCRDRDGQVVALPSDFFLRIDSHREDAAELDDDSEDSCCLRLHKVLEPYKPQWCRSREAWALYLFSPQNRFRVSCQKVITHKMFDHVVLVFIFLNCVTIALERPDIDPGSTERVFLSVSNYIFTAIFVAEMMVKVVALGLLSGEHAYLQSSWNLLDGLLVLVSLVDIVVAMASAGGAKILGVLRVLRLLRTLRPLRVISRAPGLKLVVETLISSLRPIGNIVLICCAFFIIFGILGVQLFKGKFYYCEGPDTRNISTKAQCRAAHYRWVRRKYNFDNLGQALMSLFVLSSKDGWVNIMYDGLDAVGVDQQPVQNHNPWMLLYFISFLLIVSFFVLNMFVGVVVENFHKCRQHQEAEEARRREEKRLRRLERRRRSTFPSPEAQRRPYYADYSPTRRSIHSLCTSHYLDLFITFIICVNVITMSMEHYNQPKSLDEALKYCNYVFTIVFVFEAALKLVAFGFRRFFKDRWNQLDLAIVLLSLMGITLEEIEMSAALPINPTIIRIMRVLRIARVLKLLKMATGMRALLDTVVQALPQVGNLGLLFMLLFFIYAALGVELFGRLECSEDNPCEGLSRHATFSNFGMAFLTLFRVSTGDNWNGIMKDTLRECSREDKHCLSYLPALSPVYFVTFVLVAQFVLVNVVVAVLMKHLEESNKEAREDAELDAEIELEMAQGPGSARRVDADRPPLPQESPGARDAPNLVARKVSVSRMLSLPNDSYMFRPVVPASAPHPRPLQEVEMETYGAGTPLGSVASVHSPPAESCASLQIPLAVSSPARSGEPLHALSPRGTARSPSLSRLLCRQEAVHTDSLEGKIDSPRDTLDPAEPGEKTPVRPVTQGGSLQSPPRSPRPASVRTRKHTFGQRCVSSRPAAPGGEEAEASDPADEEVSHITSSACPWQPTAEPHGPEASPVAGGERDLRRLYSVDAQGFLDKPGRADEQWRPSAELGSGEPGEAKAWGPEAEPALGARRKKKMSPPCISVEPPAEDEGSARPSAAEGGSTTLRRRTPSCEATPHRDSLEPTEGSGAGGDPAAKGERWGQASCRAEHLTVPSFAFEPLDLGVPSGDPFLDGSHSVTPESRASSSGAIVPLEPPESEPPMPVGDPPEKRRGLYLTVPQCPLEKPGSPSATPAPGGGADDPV
# [2] = test system: fully kindled rats; assay: Amygdala kindling model, anti-seizure testing in fully kindled rats; type: in vivo, rat; conditions: for primary after discharge: all four doses of Z944, ETX 100 mg/kg, compared to vehicle (p>0.5)
# Protocol: Animals were implanted with EEG recording electrodes and with a stimulating bipolar electrode in the left basolateral amygdaloid nucleus using the coordinates AP±3.0 mm, ML±5.9 mm, DV±6.0 mm. The after discharge threshold (ADT) for each animal was determined by administering a stimulation (frequency=60.1 Hz; duration=1000 μs) at one minute intervals until a seizure was clicited. The amplitude of the stimulation was started at 0.02 mA with increments of 0.02 mA; the stimulations were stopped when the animal experienced a seizure of ≥6 second duration, or if the amplitude of 0.40 mA was reached without the occurrence of a seizure. […] Kindling was performed twice a day for five days per week with an endpoint of 30 stimulations or until the animal presented five class V seizures (referred to as fully kindled). The seizure severity was classified from 0 (less severe) to V (most severe) according to the Racine Scale (Racine, 1972b). Sham kindled animals were handled the same way as the kindled animals, although no electrical stimulation was applied. An animal is classified as fully kindled once it has experienced 5 class V seizures.
# Drug testing was performed twice a week until all animals had received each of the seven treatments, Z944 (5 mg/kg, 10 mg/kg, 30 mg/kg and 100 mg/kg), vehicle (10% DMSO/90% Na^+-CMC or CBZ vehicle 20% DMSO/40% propylene glycol/40% saline), ETX (100 mg/kg) or CBZ (30 mg/kg). Prior to drug testing each day, animals were subjected to a maximum of three pre-drug stimulations 30 minutes apart. The animals qualified for testing on that particular day if a class IV or V seizure was elicited in at least 2 out of 3 pre-drug stimulations. Stimulations consisted of a 1 second train of 1 ms biphasic square wave pulses at a frequency of 60 Hz with current amplitude based on each animal ADT that elicited a seizure. Thirty minutes after the last pre-drug stimulation, the animals received an IP injection of one of the seven treatments in a randomized manner at a dose volume of 5 ml/kg. Six post-drug stimulations were administered to each animal, the first stimulation was given 15 minutes post drug injection (to allow brain penetration of the drugs) and the following five stimulations were delivered in 30 minutes intervals thereafter with the seizure class elicited being recorded after each post-drug stimulation. The duration of the primary and total seizures, if any, were recorded. An investigator blinded to the drug treatment analyzed all EEG recordings. Primary after discharge is the duration of the seizure elicited from the kindling stimulation. Total after discharge is the total seizure duration including any secondary seizures that occur after the primary after discharge. Primary after discharge duration and total seizure duration were recorded and averaged for the 6 post-drug stimulations.
# Animal weight and behaviour when handled were monitored for the duration of the experimental period. Additionally, animals were assessed by observation for any adverse effects of drugs on grooming, fur appearance, gait, and excretion.
# [3] = test system: absence seizures in patients; conditions: cited from earlier work
# [4] = test system: post-SE rats; assay: Morris water maze in post-SE rats; type: in vivo, rat; conditions: Z944 60 mg/kg/day, levetiracetam 200 mg/kg/day for 4 weeks
# Protocol: All behavioural tests were performed in a light-controlled (˜110 lux), closed, quiet and clean room in the. Behavioural testing was performed in a blinded manner to the treatment groups. All of the behavioural tests were video recorded for future analysis. OF, EPM and MWM sessions were filmed using a digital camera mounted above the centre of the arena, which was connected to a computer for the recording and objective analysis of digitized behavioural tests (EthoVision 3.0.15, Noldus). The first behavioural test was performed one week after the last EEG recording. The different behavioural tests/session were performed 24 hours apart from each other. All tests were scored by an experienced observer who was blind to the experimental conditions of the animals.
# The MWM is a circular black PVC plastic pool of 160 cm diameter which is filled to a depth of either 2.5 cm above a 10 cm diameter hidden platform water at 25±1° C. The platform is located in the centre of the South-West quadrant during the first 3 sessions and changed to North-East quadrant for the remaining sessions. Visual cues are placed in the main 4 cardinal points, consisting of large black and white symbols that serve as orientation landmarks for the rats. […] The latency to find the escape platform, speed and strategic path used by the animal to locate the platform are recorded. […]
# [5] = test system: post-SE rats; assay: Kainic acid induced post-status epilepticus model, video-EEG seizure analysis; type: in vivo, rat; conditions: osmotic pump 4 weeks; Z944 60 mg/kg/day, levetiracetam 200 mg/kg/day
# Protocol: Pumps were filled with either Z944 to deliver a daily dose of 60 mg/kg, levetiracetam to deliver a daily dose of 200 mg/kg or vehicle. For the drug tolerability study, osmotic pumps continuously either Z944, levetiracetam or vehicle for 7 days and for the post-SE study osmotic pumps delivered continuously the different treatments for 28 days.
# FIG. 11 summarizes the different methods used on this experimental paradigm.
# Animals were implanted with subdural EEG recording electrodes and one week after surgery, the animals were connected using cables that allowed them free movement around their cage. A repeated low dose KA administration protocol was used. Rats were injected i.p. with an initial dose of KA 7.5 mg/kg plus 3 ml of normal saline to prevent dehydration. Animals were monitored for 45 minutes for EEG and behavioural seizures based on the Racine scale. […] This was repeated up to 2 times every 45 minutes. An animal was eliminated from the experiment if it didn't show a stable self-sustained SE after a maximum KA total dose of 15 mg/kg. Two sham groups were treated identically but received saline injections instead of KA. After four hours of sustained electroencephalographic and behavioural seizures the animals were randomly allocated to one of the five treatment groups: sham+vehicle (n=6), sham+Z944 (n=6), post-SE+vehicle (n=8), post-SE+Z944 (n=8), post-SE+levetiracetam (n=9).
# Animals were anesthetized and implanted with subcutaneous osmotic pumps containing either vehicle Z944 (60 mg/kg/day), or levetiracetam (200 mg/kg/day) that delivered the treatment continuously for 4 weeks. Immediately after the pump implantation, SE was stopped with diazepam (5 mg/kg/dose).
# vEEG recordings commenced at least 4 h prior the induction of SE to provide baseline recordings. The video-EEG recordings continued for the whole duration of the treatment period, i.e. four weeks after the termination of the SE. […] EEG analysis was performed in a blinded manner and confirmed by two different observers. All EEG recordings were visually and manually annotated using Profusion 3 software. A seizure was defined as an episode of rhythmic spiking activity that was three times the baseline amplitude and a frequency >5 Hz that lasted at least 10 s. The end of a seizure was determined as the last spike. The average number of seizures per day, average seizure duration and seizure class (severity) were analysed.
Compound,IC50 [1] [mM],slope of the concentration-inhibition curve [1],"primary after discharge ([2]; IP, CBZ 30 mg/kg)",also measured
"CCC1(C)CC(=O)NC1=O (stereo not drawn) [Ethosuximide, ethosuximide, reference compound]",70,–,did not affect the primary after discharge,–
"NC(=O)N1c2ccccc2C=Cc2ccccc21 [Carbamazepine, carbamazepine, reference compound]",–,–,did not affect the primary after discharge,"seizure class elicited (Racine scale) ([2]; IP, Z944 5, 10, 30, 100 mg/kg, CBZ 30 mg/kg, compared to vehicle): significantly reduced the class of seizure elicited; adverse effects (sedation scale 0-4) compared to vehicle ([2]; Z944 100 mg/kg, CBZ 30 mg/kg IP, p<0.01): significantly higher adverse effects"
"CC[C@@H](C(N)=O)N1CCCC1=O [levetiracetam, reference compound]",–,–,–,time to find the hidden platform (cognition) [4]: took significantly longer to find the hidden platform; neurological adverse effects after prolonged treatment [5]: only transient and minor neurological adverse effects

# Second part, led by results:
IC50 [1] [mM],slope of the concentration-inhibition curve [1],Compound,"primary after discharge ([2]; IP, CBZ 30 mg/kg)",also measured
0.00012,0.8,CC(C)(C)NC(=O)CN1CCC(CNC(=O)c2cccc(Cl)c2)CC1 [Z941],–,–
–,4.4,"CCCC(CCC)C(=O)[O-].[Na+] [Valproate, sodium valproate]",–,"patients whose seizures were completely controlled ([3]; at 12 months): 44%; patients whose seizures were completely controlled ([3]; at 16 weeks, video-EEG recordings): 58%"
